Each structure is given as a SMILES string. The source made the active and inactive calls. The rule behind the calls is not given here.

Data set [1] can be described thus: Drug distribution in mouse plasma at 5 mg/kg, po administered as single dose and measured after 8 hrs by LC-MS analysis. In kind it is ADME, organism-based. As to conditions: read-out: Drug uptake.
Data set [2] is described as follows: Drug distribution in mouse liver at 5 mg/kg, po administered as single dose and measured after 2 hrs by LC-MS analysis. The data set is classed as ADME, organism-based. As to conditions: read-out: Drug uptake.
In another data set the test system is Monocyte. Briefly: Inhibition of cell migration in 6-n-[…]-stimulated mouse CD11bpositive Ly6Cpositive monocyte at 0.01 to 1 uM incubated for 1.5 hrs by flow cytometric analysis. The data set is classed as functional, cell-based. Conditions: dose 0.01-1 µM.
Data set [3] can be described thus: Drug distribution in mouse brain at 5 mg/kg, po administered as single dose and measured after 0.5 hrs by LC-MS analysis. Conditions: read-out: Drug uptake. In kind it is ADME, organism-based.
In data set [4] the target is T1, Alpha-1A adrenergic receptor (Homo sapiens) (UniProt P35348).
T1 sequence (whole entry): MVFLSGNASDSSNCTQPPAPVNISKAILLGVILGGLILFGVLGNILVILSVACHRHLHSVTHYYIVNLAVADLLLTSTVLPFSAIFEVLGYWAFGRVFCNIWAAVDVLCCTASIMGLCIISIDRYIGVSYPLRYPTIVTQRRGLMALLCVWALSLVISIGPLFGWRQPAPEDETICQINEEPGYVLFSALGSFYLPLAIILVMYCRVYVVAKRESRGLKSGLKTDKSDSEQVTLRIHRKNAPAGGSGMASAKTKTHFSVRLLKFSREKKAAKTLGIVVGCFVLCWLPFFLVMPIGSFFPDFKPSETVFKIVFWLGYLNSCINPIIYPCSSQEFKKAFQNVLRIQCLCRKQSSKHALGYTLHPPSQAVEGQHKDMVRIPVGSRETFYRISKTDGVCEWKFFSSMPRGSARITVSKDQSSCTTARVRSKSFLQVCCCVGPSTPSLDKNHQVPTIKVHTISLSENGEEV
Nature of the data set: Antagonist activity at ARalpha1A (unknown origin) expressed in HEK293 cells co-expressing Galpha16 assessed as inhibition of Phenylephrine induced calcium response upto 100 uM incubated for 10 mins by calcium mobilization assay. The data set is classed as functional, cell-based. (In general: Calcium flux is commonly read through the fluorescence of an indicator in the cells.)

A short description of data set [5]: Drug distribution in mouse liver at 5 mg/kg, po administered as single dose and measured after 8 hrs by LC-MS analysis. In kind it is ADME, organism-based. As to conditions: read-out: Drug uptake.
Data set [6] concerns the target Delta-type opioid receptor (Homo sapiens) (UniProt P41143). Briefly: Antagonist activity at DOR (unknown origin) expressed in CHO-K1 cells co-expressing Galpha16 assessed as inhibition of DPDPE induced calcium response upto 100 uM incubated for 10 mins by calcium mobilization assay. In kind it is functional, cell-based.
The target in data set [7] is G-protein coupled receptor 84 (Mus musculus) (UniProt Q8CIM5). Nature of the data set: Antagonist activity at mouse GPR84 expressed in HEK293 cells co-expressing Galpha16 assessed as inhibition of 6-OAU induced calcium response incubated for 10 mins by calcium mobilization assay. Conditions: filed as antagonist. The data set is classed as functional, cell-based.
Chain of G-protein coupled receptor 84 (Mus musculus) (Q8CIM5 whole entry): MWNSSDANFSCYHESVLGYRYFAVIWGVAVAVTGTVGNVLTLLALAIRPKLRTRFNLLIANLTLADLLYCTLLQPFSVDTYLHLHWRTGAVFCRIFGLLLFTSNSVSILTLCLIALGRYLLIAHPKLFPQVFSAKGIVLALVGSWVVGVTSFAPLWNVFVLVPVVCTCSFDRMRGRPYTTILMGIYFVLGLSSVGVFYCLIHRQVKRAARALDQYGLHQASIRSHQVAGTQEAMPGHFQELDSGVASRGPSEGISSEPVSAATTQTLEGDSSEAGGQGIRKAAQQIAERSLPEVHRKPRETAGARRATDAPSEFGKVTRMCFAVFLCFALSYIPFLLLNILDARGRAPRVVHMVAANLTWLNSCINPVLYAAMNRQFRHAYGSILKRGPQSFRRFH

Chain of Delta-type opioid receptor (Homo sapiens) (P41143 whole entry): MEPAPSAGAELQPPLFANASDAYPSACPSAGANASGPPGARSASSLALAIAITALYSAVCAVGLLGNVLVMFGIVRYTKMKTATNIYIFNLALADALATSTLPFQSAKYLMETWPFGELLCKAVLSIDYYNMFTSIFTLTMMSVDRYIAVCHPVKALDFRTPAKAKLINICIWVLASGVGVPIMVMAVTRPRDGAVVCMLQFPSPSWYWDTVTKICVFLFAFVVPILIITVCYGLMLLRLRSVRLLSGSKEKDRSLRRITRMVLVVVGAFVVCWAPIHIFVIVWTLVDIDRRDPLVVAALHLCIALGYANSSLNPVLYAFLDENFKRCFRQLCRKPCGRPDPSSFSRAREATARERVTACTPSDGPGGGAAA

For `O=P([O-])(OC1=Cc2c(Cl)cccc2Sc2ccccc21)OC1=Cc2c(Cl)cccc2Sc2ccccc21.[Na+]`, the concentration at 8 h in data set [1] is 50.7 ng/mL; in data set [5], 1180 ng/g. For the same molecule, the concentration at 2 h in data set [2] amounted to 1960 ng/g. The inhibition result (in the data set on Monocyte; in data set [7]) was “Active” throughout. Also, the concentration at 0.5 h in data set [3] was 6.8 ng/g. The inhibition result in data set [4] and in data set [6] was “inactive” each time.

For the origin of these results see ChEMBL document CHEMBL5380862, “Unsymmetrical Phosphodiesters as GPR84 Antagonists with High Blood Exposure for the Treatment of Lung Inflammation” (J Med Chem, 2023).
